Read-outs that look alike come from different tables or passages of the source.
Tests used:
B. subtilis = assay: MIC, antimicrobial activity assay; format: cell-based, Bacillus subtilis (ATCC 6633); settings: Bacillus subtilis
S. flexneri = assay: MIC, antimicrobial activity assay; format: cell-based, Shigella flexneri (ATCC 12022); settings: Shigella flexneri; Table 4, Gram-negative
S. enterica = assay: MIC, antimicrobial activity assay; format: cell-based, Salmonella enterica (CIP 80.39); settings: Salmonella enterica; Table 4, Gram-negative
C. farmer = assay: MIC, antimicrobial activity assay; format: cell-based, Citrobacter farmeri (ATCC 51633); settings: Citrobacter farmeri; Table 4, Gram-negative
H. pylori = assay: MIC, antimicrobial activity assay; format: cell-based, Helicobacter pylori (ATCC 43504); settings: Helicobacter pylori; Table 4, Gram-negative; microaerobic
V. alginolyticus = assay: MIC, antimicrobial activity assay; format: cell-based, Vibrio alginolyticus (DSM 2171); settings: Vibrio alginolyticus; Table 4, Gram-negative
[1] = test system: E. faecalis (Vancomycin-resistant); assay: MIC, antimicrobial activity assay; format: cell-based, vancomycin-resistant Enterococcus faecalis (DSMZ 13591); settings: Enterococcus faecalis, read-out: MIC E. faecalis (Vancomycin-resistant)
[2] = test system: P. aeruginosa (Quinolone-resistant); assay: MIC, antimicrobial activity assay; format: cell-based; settings: Pseudomonas aeruginosa, read-out: MIC P. aeruginosa (Quinolone-resistant)
[3] = test system: S.aureus (Methicillin-resistant); assay: MIC, antimicrobial activity assay; format: cell-based; settings: Staphylococcus aureus, read-out: MIC S.aureus (Methicillin-resistant)
C. albicans = assay: MIC, antifungal activity assay; format: cell-based, Candida albicans (DSM 10697); settings: Candida albicans; Table 1 first screening; 35 °C, 24 h; read-out: Minimal Inhibitory Concentration (MIC) C. albicans
A. gandavensis = assay: MIC, antimicrobial activity assay; format: cell-based, Arthrobacter gandavensis (DSM 2447); settings: Arthrobacter gandavensis; Table 4, Gram-positive
C. difficile = assay: MIC, antimicrobial activity assay; format: cell-based, Clostridium difficile (DSM 1296); settings: Clostridioides difficile; Table 4, Gram-positive; anaerobic
B. cereus = assay: MIC, antimicrobial activity assay; format: cell-based; settings: Bacillus cereus; Table 4, Gram-positive
[4] = test system: B. subtilis (Nisin-resistant); assay: MIC, antimicrobial activity assay; format: cell-based, nisin-resistant B. subtilis (DSMZ 347); settings: Bacillus subtilis, read-out: MIC B. subtilis (Nisin-resistant)
E. coli = assay: MIC, antimicrobial activity assay; format: cell-based, Escherichia coli (ATCC 8739); settings: Escherichia coli
S. pyogenes = assay: MIC, antimicrobial activity assay; format: cell-based, Streptococcus pyogenes (DSM 20565); settings: Streptococcus pyogenes; Table 4, Gram-positive; anaerobic
K. pneumonia = assay: MIC, antimicrobial activity assay; format: cell-based, Klebsiella pneumoniae (DSMZ 26371); settings: Klebsiella pneumoniae; Table 4, Gram-negative
C. rodentium = assay: MIC, antimicrobial activity assay; format: cell-based, Citrobacter rodentium (ATCC 51116); settings: Citrobacter rodentium; Table 4, Gram-negative
C. perfringens = assay: microbe, parasite or virus in culture; format: cell-based, Clostridium perfringens (ATCC 13124); settings: Clostridium perfringens, read-out: MIC C. perfringens
P. aeruginosa = assay: MIC, antimicrobial activity assay; format: cell-based, Pseudomonas aeruginosa (ATCC 9027); settings: Pseudomonas aeruginosa
V. diabolicus = assay: MIC, antimicrobial activity assay; format: cell-based; settings: Vibrio diabolicus; Table 4, Gram-negative
A. baumannii = assay: MIC, antimicrobial activity assay; format: cell-based, Acinetobacter baumannii (CIP 110431); settings: Acinetobacter baumannii; Table 4, Gram-negative
L. lactis = assay: MIC, antimicrobial activity assay; format: cell-based, Lactococcus lactis (DSM 20481); settings: Lactococcus lactis; Table 4, Gram-positive
S. aureus = assay: MIC, antimicrobial activity assay; format: cell-based, Staphylococcus aureus (ATCC 6538P); settings: Staphylococcus aureus
[5] = test system: BEAS (human airway epithelial cells); assay: Cytotoxic assay on human cells (resazurin); format: cell-based; settings: Epithelial cell, 48 h, means +/−SD, read-out: Inhibitory Concentration 50 (IC50) on cell viability, BEAS
Procedure: (§1) The toxicity of berberine and berberine’s derivatives on human cells was evaluated using resazurin assay as previously described. Human cells used were BEAS (ATCC CRL-9609), Caco2 (ATCC HTB-37) and HepG2 (ATCC HB-8065) corresponding respectively to human airway epithelial cells, intestinal epithelial cells and liver cells. Cells were cultured in Dulbecco’s modified essential medium (DMEM) supplemented with 10% fetal bovine serum (FBS), 1% L-glutamine and 1% antibiotics (Thermo Fisher Scientific, Illkirch-Graffenstaden, France). Cells were routinely grown on 25 cm^2 flasks and maintained in a 5% CO2 incubator at 37 °C. For toxicity assay, cells were detached using trypsin–EDTA solution (Thermo Fisher Scientific), counted using Mallasez counting chamber and seeded into 96-well cell culture plates (Greiner bio-One, Dominique Dutscher, Brumath, France) at approximately 10,000 cells per well. The cells were left to grow for 48–72 h at 37 °C in a 5% CO2 incubator until they reached confluence. Media from wells was then aspirated and cells were treated with 100 µL of culture media containing increasing concentrations of berberine or berberine’s derivatives obtained by serial dilution (from 0 to 50 µM, 1:2 dilution), DMSO (0.5% DMSO final concentration) was used as negative control. After 48 h incubation at 37 °C in a 5% CO2 incubator, cell viability was evaluated using resazurin based in vitro toxicity assay kit (Sigma-Aldrich) following manufacturer’s instructions. Briefly, cell wells were emptied, and cells were treated with 100 µL of resazurin diluted 1:10 in sterile PBS containing calcium and magnesium (PBS^++, pH 7.4). After 4 h incubation at 37 °C, fluorescence intensity (excitation wavelength of 530 nm/emission wavelength of 590 nm) was measured using Synergy Mx microplate reader (Biotek). The fluorescence values were normalized by the controls (DMSO treated cells) and expressed as percent viability. The IC50 values of berberine and berberine’s derivatives on cell viability (i.e., the concentration of derivative causing a reduction of 50% of the cell viability) were calculated using GraphPad® Prism 7 software (San Diego, CA, USA). t-Test and two ways ANOVA analyses were used to address the significant differences between mean values with significance set at p < 0.05.

[6] = test system: Caco2 (human intestinal epithelial cells); assay: Cytotoxic assay on human cells (resazurin); format: cell-based; settings: for IC50: Homo sapiens, Caco-2, 48 h, read-out: Inhibitory Concentration 50 (IC50) on cell viability, Caco2; for therapeutic index Caco2: IC50 on Caco2 divided by MIC on S. aureus
Procedure: as §1

[7] = test system: HepG2 (human liver cells); assay: Cytotoxic assay on human cells (resazurin); format: cell-based; settings: HepG2, 48 h, read-out: Inhibitory Concentration 50 (IC50) on cell viability, HEPG2
Procedure: as §1

M. smegmatis = assay: microbe, parasite or virus in culture; format: cell-based, Mycobacterium smegmatis (mc2155, ATCC 700084); settings: Mycolicibacterium smegmatis, 72 h, read-out: Minimal Inhibitory Concentration (MIC) M. smegmatis
[8] = Table 1 first screening, read-out: Minimal Inhibitory Concentration (MIC) B. subtilis
[9] = Table 4, Gram-positive, read-out: MIC B. subtilis
[10] = Table 1 first screening, read-out: Minimal Inhibitory Concentration (MIC) E. coli
[11] = Table 4, Gram-negative, read-out: MIC E. coli
[12] = Table 1 first screening, read-out: Minimal Inhibitory Concentration (MIC) P. aeruginosa
[13] = Table 4, Gram-negative, read-out: MIC P. aeruginosa
[14] = Table 1 first screening, read-out: Minimal Inhibitory Concentration (MIC) S. aureus
[15] = Table 4, Gram-positive, read-out: MIC S. aureus

SMILES	MIC (B. subtilis; [8]) [µM]	MIC (B. subtilis; [9]) [µM]	MIC (S. flexneri) [µM]	MIC (S. enterica) [µM]	MIC (C. farmer) [µM]	MIC (H. pylori) [µM]	MIC (V. alginolyticus) [µM]	MIC [1] [µM]	MIC [2] [µM]	MIC [3] [µM]	MIC (C. albicans) [µM]	MIC (A. gandavensis) [µM]	MIC (C. difficile) [µM]	MIC (E. coli; [10]) [µM]	MIC (P. aeruginosa; [12]) [µM]	MIC (S. aureus; [14]) [µM]	IC50 [5] [µM]	IC50 [6] [µM]	IC50 [7] [µM]	MIC (M. smegmatis) [µM]	further results
COc1ccc2c(Cc3ccc(CI)cc3)c3[n+](cc2c1OC)CCc1cc2c(cc1-3)OCO2 [Compound 8, 13-(4-Iodomethylbenzyl)Berberine]	6.25	6.25	50	> 100	> 100	6.25	6.25	50	> 100	12.5	50	3.12	100	> 100	> 100	6.25	23.4 ± 4.5	> 50	> 50	25	MIC (B. cereus): 12.5 µM; MIC [4]: 12.5 µM; MIC (E. coli; [11]): > 100 µM; MIC (S. pyogenes): 12.5 µM; MIC (K. pneumonia): > 100 µM; MIC (C. rodentium): > 100 µM; MIC (C. perfringens): 100 µM; MIC (P. aeruginosa; [13]): > 100 µM; MIC (V. diabolicus): > 100 µM; MIC (A. baumannii): > 100 µM; MIC (L. lactis): 3.12 to 6.25 µM; MIC (S. aureus; [15]): 6.25 µM; therapeutic index Caco2 [6]: 11.18
COc1ccc(Cc2c3[n+](cc4c(OC)c(OC)ccc24)CCc2cc4c(cc2-3)OCO4)c(OC)c1OC [Compound 14, 13[(2,3,4-Trimethoxyphenyl)methyl]Berberine]	50	–	–	–	–	–	–	–	–	–	> 100	–	–	> 100	> 100	25	> 50	> 50	> 50	25	–
COc1ccc2c(CC(=O)c3ccc(OC(=O)c4ccccc4)cc3OC(=O)c3ccccc3)c3[n+](cc2c1OC)CCc1cc2c(cc1-3)OCO2 [Compound 17, 4-[2-(Berberin-13-yl)acetyl]-3-(benzoyloxy)phenyl Benzoate]	12.5	12.5	> 100	> 100	> 100	6.25 to 12.5	1.5 to 3.12	25	> 100	25	25	12.5	100	> 100	> 100	6.25 to 12.5	42.4 ± 9.8	> 50	> 50	100	MIC (B. cereus): 25 µM; MIC [4]: 12.5 to 25 µM; MIC (E. coli; [11]): > 100 µM; MIC (S. pyogenes): 25 µM; MIC (K. pneumonia): > 100 µM; MIC (C. rodentium): > 100 µM; MIC (C. perfringens): 50 µM; MIC (P. aeruginosa; [13]): > 100 µM; MIC (V. diabolicus): > 100 µM; MIC (A. baumannii): > 100 µM; MIC (L. lactis): 3.12 to 6.25 µM; MIC (S. aureus; [15]): 6.25 µM; therapeutic index Caco2 [6]: 8.54
COc1ccc2c(Cc3ccc(-c4nc5ccccc5s4)cc3)c3[n+](cc2c1OC)CCc1cc2c(cc1-3)OCO2 [Compound 19]	1.5	–	–	–	–	–	–	–	–	–	6.25	–	–	> 100	> 100	1.5 to 3.12	4.92 ± 0.6	12 ± 1.3	31.2 ± 7.1	12.5	–
COc1ccc2c(Cc3ccc(/C=C/C(=O)NCCc4ccc(S(N)(=O)=O)cc4)cc3)c3[n+](cc2c1OC)CCc1cc2c(cc1-3)OCO2 [Compound 23, (2E)-3-{4-[(Berberin-13-yl)methyl]phenyl}-N-[2-(4-sulfamoylphenyl)ethyl]prop-2-enamide]	25	25	> 100	> 100	> 100	6.25	6.25	100	> 100	12.5	100	50	50	> 100	> 100	6.25	> 50	> 50	> 50	25	MIC (B. cereus): 12.5 µM; MIC [4]: 25 µM; MIC (E. coli; [11]): > 100 µM; MIC (S. pyogenes): 6.25 µM; MIC (K. pneumonia): > 100 µM; MIC (C. rodentium): > 100 µM; MIC (C. perfringens): 50 µM; MIC (P. aeruginosa; [13]): > 100 µM; MIC (V. diabolicus): > 100 µM; MIC (A. baumannii): > 100 µM; MIC (L. lactis): 6.25 µM; MIC (S. aureus; [15]): 6.25 µM; therapeutic index Caco2 [6]: 12.40

Reference: PMC7400437, “Synthesis and Evaluation of the Antibacterial Activities of 13-Substituted Berberine Derivatives” (Antibiotics, 2020)
